Assay results reported in article PMC10176470, “Engaging a Non-catalytic Cysteine Residue Drives Potent and Selective Inhibition of Caspase-6” (Journal of the American Chemical Society, 2023).
Like-named read-outs stand apart in the source and are kept apart here.

What was measured:
Format in all cases: cell-based
[1] = target: proteins of HEK293T cells transiently overexpressing caspase-6 (Homo sapiens, UniProt Q92688); details: protein ANP32B (Q92688)
[2] = target: T1, proteins of HEK293T cells transiently overexpressing caspase-6 (Homo sapiens, UniProt Q07065); details: protein CKAP4 (Q07065)
T1 sequence (Q07065 1-602): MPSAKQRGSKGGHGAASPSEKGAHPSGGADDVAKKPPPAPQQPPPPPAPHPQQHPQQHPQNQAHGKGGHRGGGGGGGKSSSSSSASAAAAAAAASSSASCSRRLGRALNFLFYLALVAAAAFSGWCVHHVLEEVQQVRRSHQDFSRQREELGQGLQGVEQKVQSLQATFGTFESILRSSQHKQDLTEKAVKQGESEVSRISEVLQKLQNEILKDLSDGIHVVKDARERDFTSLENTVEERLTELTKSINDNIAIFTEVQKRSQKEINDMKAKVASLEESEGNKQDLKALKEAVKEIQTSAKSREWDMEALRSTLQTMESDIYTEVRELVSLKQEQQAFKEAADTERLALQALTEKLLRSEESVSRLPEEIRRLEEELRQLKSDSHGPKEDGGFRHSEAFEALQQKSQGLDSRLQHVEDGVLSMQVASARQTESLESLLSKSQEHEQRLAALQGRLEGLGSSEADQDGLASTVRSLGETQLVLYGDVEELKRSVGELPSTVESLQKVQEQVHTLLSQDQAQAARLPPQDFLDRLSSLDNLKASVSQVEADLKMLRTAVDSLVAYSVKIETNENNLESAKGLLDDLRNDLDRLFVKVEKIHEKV

[3] = target: proteins of HEK293T cells transiently overexpressing caspase-6 (Homo sapiens, UniProt P62917); details: Probe; protein RPL8 P62917
[4] = target: proteins of HEK293T cells transiently overexpressing caspase-6 (Homo sapiens, UniProt P07814); details: exp_ref Probe; protein EPRS (P07814); analysis C6
Sequence of proteins of HEK293T cells transiently overexpressing caspase-6 (Homo sapiens, UniProt P07814) (P07814 whole entry): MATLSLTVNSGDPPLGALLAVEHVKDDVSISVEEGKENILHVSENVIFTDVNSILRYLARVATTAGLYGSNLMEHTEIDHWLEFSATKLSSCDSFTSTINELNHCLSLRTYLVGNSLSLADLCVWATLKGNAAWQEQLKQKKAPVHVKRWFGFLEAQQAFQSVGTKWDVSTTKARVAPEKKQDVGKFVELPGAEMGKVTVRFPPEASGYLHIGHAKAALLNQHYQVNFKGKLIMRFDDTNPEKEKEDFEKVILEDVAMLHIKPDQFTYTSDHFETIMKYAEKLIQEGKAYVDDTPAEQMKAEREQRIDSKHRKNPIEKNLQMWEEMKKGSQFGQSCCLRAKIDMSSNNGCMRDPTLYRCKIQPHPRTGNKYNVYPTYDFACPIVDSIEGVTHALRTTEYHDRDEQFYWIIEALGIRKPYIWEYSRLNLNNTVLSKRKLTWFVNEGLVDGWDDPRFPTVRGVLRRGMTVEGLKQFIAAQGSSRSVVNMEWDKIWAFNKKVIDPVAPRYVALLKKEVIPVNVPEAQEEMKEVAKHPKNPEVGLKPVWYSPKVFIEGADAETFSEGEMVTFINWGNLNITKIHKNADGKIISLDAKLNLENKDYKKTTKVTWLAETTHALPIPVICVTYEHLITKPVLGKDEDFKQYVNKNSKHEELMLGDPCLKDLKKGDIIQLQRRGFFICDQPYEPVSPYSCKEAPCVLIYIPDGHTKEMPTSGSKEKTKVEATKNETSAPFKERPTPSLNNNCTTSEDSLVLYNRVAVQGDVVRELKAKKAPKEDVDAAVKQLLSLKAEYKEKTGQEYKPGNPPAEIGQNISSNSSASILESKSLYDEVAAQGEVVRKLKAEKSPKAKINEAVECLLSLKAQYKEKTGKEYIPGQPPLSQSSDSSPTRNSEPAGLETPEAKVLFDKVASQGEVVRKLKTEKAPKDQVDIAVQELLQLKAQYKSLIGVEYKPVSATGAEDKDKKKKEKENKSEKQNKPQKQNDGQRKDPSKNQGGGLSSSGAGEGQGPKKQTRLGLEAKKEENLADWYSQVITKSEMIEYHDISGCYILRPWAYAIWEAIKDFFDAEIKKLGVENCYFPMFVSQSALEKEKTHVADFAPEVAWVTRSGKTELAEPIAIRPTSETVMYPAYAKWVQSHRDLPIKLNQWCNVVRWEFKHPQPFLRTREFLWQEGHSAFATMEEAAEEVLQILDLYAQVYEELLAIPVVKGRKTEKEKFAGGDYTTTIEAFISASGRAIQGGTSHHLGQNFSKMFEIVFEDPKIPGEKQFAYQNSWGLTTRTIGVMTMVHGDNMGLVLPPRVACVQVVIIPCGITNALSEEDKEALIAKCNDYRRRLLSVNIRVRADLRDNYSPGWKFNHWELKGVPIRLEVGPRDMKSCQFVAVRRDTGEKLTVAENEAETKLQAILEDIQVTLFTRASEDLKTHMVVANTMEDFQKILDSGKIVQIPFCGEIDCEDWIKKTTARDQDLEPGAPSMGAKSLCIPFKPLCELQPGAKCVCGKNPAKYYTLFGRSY

[5] = target: proteins of HEK293T cells transiently overexpressing caspase-6 (Homo sapiens, UniProt O43390); details: exp_ref Probe; protein HNRNPR (O43390); analysis C6
Sequence of proteins of HEK293T cells transiently overexpressing caspase-6 (Homo sapiens, UniProt O43390) (O43390 whole entry): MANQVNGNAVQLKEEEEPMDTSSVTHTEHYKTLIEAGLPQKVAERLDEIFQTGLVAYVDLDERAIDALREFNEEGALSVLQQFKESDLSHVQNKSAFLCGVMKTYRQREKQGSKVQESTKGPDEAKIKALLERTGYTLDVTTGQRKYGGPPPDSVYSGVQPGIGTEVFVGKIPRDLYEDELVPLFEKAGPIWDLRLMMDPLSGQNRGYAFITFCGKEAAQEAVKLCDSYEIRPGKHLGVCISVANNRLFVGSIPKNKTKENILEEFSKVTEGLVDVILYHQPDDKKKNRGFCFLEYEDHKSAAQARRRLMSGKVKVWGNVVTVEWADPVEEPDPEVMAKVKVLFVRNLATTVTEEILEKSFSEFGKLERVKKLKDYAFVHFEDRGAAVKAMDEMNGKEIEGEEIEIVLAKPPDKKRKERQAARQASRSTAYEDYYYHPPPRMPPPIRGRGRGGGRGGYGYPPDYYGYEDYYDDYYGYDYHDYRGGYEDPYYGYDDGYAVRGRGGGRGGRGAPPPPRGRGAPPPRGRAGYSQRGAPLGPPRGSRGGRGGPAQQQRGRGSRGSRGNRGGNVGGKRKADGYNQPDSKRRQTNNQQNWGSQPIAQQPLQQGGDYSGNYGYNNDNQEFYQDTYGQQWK

[6] = target: proteins of HEK293T cells transiently overexpressing caspase-6 (Homo sapiens, UniProt Q14166); details: exp_ref Probe; protein TTLL12 (Q14166); analysis C6
[7] = target: proteins of HEK293T cells transiently overexpressing caspase-6 (Homo sapiens, UniProt P46779); details: exp_ref Probe; protein RPL28 (P46779); analysis C6
[8] = target: proteins of HEK293T cells transiently overexpressing caspase-6 (Homo sapiens, UniProt Q14247); details: exp_ref Probe; protein CTTN (Q14247); analysis C6
Sequence of proteins of HEK293T cells transiently overexpressing caspase-6 (Homo sapiens, UniProt Q14247) (Q14247 whole entry): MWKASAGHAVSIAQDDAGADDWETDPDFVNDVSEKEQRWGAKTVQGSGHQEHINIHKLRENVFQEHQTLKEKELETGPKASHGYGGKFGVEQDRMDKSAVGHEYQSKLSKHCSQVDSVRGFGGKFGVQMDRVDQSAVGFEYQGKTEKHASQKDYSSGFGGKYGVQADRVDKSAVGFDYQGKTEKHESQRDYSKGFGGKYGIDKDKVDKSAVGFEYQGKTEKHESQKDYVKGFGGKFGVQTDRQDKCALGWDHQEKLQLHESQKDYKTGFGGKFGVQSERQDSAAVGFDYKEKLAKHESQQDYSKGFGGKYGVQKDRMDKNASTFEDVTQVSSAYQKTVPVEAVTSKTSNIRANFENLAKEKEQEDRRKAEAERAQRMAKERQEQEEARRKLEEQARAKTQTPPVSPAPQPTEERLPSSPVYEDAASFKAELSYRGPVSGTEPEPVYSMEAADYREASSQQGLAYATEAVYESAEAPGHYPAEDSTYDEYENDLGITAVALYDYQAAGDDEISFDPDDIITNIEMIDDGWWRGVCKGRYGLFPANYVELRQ

[9] = target: T2, proteins of HEK293T cells transiently overexpressing caspase-6 (Homo sapiens, UniProt P50990); details: protein CCT8 (P50990)
T2 sequence (P50990 1-548): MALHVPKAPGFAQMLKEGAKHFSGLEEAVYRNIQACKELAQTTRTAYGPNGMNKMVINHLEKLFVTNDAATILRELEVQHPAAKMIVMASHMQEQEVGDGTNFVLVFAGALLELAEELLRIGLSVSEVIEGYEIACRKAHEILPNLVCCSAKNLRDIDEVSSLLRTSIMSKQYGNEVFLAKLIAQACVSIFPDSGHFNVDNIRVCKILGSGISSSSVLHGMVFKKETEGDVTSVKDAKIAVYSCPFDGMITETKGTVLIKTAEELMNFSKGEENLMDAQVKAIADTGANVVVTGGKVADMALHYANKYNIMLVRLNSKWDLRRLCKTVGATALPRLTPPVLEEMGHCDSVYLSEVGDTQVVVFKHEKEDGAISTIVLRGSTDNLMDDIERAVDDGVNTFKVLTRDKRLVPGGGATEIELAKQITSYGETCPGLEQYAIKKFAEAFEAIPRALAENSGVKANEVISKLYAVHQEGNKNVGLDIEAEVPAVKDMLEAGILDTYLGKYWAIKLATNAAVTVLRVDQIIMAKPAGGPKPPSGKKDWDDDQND

[10] = target: T3, proteins of HEK293T cells transiently overexpressing caspase-6 (Homo sapiens, UniProt O60506); details: exp_ref Probe; protein SYNCRIP (O60506); analysis C6
T3 sequence (O60506 1-623): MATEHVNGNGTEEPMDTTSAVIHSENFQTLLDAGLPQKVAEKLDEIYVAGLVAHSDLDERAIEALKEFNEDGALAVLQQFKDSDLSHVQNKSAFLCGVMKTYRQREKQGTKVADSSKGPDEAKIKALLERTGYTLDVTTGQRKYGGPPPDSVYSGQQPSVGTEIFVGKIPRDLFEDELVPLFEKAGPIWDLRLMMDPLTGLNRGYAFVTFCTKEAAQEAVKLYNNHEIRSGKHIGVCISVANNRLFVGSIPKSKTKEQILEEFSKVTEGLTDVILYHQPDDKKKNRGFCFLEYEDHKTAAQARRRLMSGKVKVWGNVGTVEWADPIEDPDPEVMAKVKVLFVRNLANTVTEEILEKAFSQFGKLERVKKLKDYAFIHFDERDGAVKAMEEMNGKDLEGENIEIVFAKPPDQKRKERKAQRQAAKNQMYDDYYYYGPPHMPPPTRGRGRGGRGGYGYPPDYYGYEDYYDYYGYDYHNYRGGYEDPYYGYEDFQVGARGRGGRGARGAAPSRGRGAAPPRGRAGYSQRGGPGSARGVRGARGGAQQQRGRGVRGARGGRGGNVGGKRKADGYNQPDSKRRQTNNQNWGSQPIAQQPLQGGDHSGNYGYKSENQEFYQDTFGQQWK

[11] = target: proteins of HEK293T cells transiently overexpressing caspase-6 (Homo sapiens, UniProt P26599); details: exp_ref Probe; protein PTBP1 (P26599); analysis C6
Sequence of proteins of HEK293T cells transiently overexpressing caspase-6 (Homo sapiens, UniProt P26599) (P26599 whole entry): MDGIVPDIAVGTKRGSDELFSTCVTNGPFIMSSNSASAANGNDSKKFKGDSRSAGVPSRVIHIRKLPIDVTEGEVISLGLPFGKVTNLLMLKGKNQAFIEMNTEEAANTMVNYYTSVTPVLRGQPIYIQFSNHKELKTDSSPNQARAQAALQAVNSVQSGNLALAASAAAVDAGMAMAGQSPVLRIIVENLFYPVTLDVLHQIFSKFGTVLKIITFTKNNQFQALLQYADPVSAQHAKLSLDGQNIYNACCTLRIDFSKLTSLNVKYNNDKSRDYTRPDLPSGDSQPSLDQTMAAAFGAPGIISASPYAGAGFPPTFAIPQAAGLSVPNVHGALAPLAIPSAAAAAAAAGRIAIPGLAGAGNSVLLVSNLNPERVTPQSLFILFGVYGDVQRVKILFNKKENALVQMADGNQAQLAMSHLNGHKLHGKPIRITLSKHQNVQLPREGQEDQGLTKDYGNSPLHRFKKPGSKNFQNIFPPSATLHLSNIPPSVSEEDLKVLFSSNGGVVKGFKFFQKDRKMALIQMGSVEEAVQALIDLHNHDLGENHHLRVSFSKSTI

[12] = target: proteins of HEK293T cells transiently overexpressing caspase-6 (Homo sapiens, UniProt P22314); details: exp_ref Probe; protein UBA1 (P22314); analysis C6
Sequence of proteins of HEK293T cells transiently overexpressing caspase-6 (Homo sapiens, UniProt P22314) (P22314 whole entry): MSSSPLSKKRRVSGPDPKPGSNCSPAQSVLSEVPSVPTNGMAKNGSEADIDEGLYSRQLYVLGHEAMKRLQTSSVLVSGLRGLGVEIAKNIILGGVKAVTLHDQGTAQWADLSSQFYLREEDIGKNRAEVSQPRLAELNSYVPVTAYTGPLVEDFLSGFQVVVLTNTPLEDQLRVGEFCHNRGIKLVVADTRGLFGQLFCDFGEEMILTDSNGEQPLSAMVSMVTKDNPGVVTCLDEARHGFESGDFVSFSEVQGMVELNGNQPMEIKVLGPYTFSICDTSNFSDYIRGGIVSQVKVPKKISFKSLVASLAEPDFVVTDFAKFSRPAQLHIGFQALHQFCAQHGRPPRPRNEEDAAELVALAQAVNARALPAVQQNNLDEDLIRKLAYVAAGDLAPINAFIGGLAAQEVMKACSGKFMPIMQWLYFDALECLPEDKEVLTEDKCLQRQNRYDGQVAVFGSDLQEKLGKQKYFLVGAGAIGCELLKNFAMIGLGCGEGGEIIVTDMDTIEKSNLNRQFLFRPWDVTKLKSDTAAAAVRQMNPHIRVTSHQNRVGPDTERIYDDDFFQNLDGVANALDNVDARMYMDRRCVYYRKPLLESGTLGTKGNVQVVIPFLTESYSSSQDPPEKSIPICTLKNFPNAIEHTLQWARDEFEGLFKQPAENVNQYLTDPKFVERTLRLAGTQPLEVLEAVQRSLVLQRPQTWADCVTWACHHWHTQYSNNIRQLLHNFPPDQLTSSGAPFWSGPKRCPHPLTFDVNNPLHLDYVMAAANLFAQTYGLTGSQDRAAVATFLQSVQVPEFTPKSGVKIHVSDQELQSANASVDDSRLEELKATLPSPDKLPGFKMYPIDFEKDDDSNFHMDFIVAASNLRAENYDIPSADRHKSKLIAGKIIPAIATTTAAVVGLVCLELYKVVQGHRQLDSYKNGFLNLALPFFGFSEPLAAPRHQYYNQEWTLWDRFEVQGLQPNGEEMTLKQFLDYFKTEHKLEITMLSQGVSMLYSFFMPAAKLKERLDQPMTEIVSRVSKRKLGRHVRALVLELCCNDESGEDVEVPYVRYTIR

Sequence of proteins of HEK293T cells transiently overexpressing caspase-6 (Homo sapiens, UniProt Q92688) (Q92688 whole entry): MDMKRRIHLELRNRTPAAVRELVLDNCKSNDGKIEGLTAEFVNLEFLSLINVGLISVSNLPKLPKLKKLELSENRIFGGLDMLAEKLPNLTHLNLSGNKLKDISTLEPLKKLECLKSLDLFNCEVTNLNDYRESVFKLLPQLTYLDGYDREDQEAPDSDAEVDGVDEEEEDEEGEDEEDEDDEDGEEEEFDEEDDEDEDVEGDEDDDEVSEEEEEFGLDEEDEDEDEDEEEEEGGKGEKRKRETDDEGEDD

`C#CCOc1ccc([C@@H]2C[C@@H](C(=O)Nc3ccc(OC(F)(F)F)cc3)CN(S(=O)(=O)C=C)C2)cc1` (relative stereo) [13-t] gave an enrich.exp.med.lin [1] of 4.217, an enrich.exp.med.log2 [1] of 2.0761 and an enrich.exp.med ([1]; exp_ref Probe, analysis C6) of 2.0761. For the same molecule, the enrich.exp.med.lin [2] was 4.971, the enrich.exp.med.log2 [2] was 2.313 and the enrich.exp.med.lin ([2]; Expt Probe, analysis C6) was 4.971. It also gave an enrich.exp.med.log2 ([2]; Expt Probe, analysis C6) of 2.313, an enrich.exp.med ([2]; exp_ref Probe, analysis C6) of 2.313 and an enrich.exp.med [3] of -0.8445. For the same molecule, the enrich.exp.med [4] was 0.5173, the enrich.exp.med [5] was 0.1675 and the enrich.exp.med [6] was -0.1545. The enrich.exp.med [7] was -0.3003, the enrich.exp.med [8] was -0.3871 and the enrich.exp.med ([9]; exp_ref Probe, analysis C6) was 0.932. For the same molecule, the enrich.exp.med.lin [9] was 1.908, the enrich.exp.med.log2 [9] was 0.932 and the enrich.exp.med [10] was 0.8584. It also gave an enrich.exp.med [11] of 0.1008 and an enrich.exp.med [12] of 0.3187.
